According to PubChem BioAssay (NCI):
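Results reflect a 48-hour exposure of cells in 96-well plates to compound at five concentrations. The concentration for 50% growth inhibition is given as GI50. TGI is the concentration that stops growth completely.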

What was measured:
Experiment in all cases: NCI tumour cell line growth inhibition, 48 h
A549 NSCLC = test system: A549 NSCLC
ACHN renal = test system: ACHN renal
COLO 205 colon = test system: COLO 205 colon
HOP-62 NSCLC = test system: HOP-62 NSCLC
HT29 colon = test system: HT29 colon
MDA-MB-231 breast = test system: MDA-MB-231 breast
MOLT-4 leukemia = test system: MOLT-4 leukemia
NCI-H460 lung = test system: NCI-H460 lung
SN12C renal = test system: SN12C renal
SNB-75 CNS = test system: SNB-75 CNS

Row | Structure (SMILES) | GI50 (A549 NSCLC) | TGI (A549 NSCLC) | GI50 (ACHN renal) | TGI (ACHN renal) | GI50 (COLO 205 colon) | TGI (COLO 205 colon) | GI50 (HOP-62 NSCLC) | TGI (HOP-62 NSCLC) | GI50 (HT29 colon) | TGI (HT29 colon) | GI50 (MDA-MB-231 breast) | TGI (MDA-MB-231 breast) | GI50 (MOLT-4 leukemia) | TGI (MOLT-4 leukemia) | GI50 (NCI-H460 lung) | TGI (NCI-H460 lung) | GI50 (SN12C renal) | TGI (SN12C renal) | GI50 (SNB-75 CNS) | TGI (SNB-75 CNS)
1 | CCN1CCN(c2ccc(Nc3cc(N(C)C(=O)Nc4c(Cl)c(OC)cc(OC)c4Cl)ncn3)cc2)CC1 | 3130 nM | 12100 nM | 2180 nM | 13600 nM | 1930 nM | 3470 nM | 4030 nM | 15500 nM | 1550 nM | 3690 nM | 1990 nM | 4150 nM | 1870 nM | 5800 nM | 1870 nM | 5420 nM | 2620 nM | 11000 nM | 5230 nM | 22200 nM
2 | O=S(=O)([O-])c1ccc2c(c1)-c1nc-2nc2[n-]c(nc3nc(nc4[n-]c(n1)c1ccc(S(=O)(=O)[O-])cc41)-c1cc(S(=O)(=O)[O-])ccc1-3)c1ccc(S(=O)(=O)[O-])cc21.[Cu+2].[Na+] | 24100 nM | > 100000 nM | > 74300 nM | > 100000 nM | 6960 nM | > 62000 nM | > 100000 nM | > 100000 nM | 3320 nM | > 100000 nM | > 100000 nM | > 100000 nM | 2190 nM | > 100000 nM | 4650 nM | > 100000 nM | > 100000 nM | > 100000 nM | > 67300 nM | > 100000 nM
3 | O=C(OCc1ccc2cccc(O)c2n1)N1CCN(C(=O)c2cc3cc(F)ccc3[nH]2)CC1 | 1620 nM | 3350 nM | 615 nM | 1920 nM | 622 nM | 2070 nM | 1370 nM | 3160 nM | 1140 nM | 3050 nM | 966 nM | 2230 nM | 334 nM | 1370 nM | 1340 nM | 3640 nM | 1210 nM | 2490 nM | 1020 nM | 2240 nM
4 | COc1ccc(N2C(=O)C(c3ccccc3)(c3ccccc3)C23C(=O)N(C)c2ccccc23)cc1 (stereo not given) | > 100000 nM | > 100000 nM | > 100000 nM | > 100000 nM | > 100000 nM | > 100000 nM | > 100000 nM | > 100000 nM | > 100000 nM | > 100000 nM | 54000 nM | > 100000 nM | > 100000 nM | > 100000 nM | > 100000 nM | > 100000 nM | > 100000 nM | > 100000 nM | 89100 nM | > 100000 nM
5 | Clc1coc2nc3ccccc3c(Nc3ccc4c(c3)OCO4)c12 | 995 nM | 22300 nM | 1150 nM | 12100 nM | 2050 nM | 30000 nM | 781 nM | 21900 nM | 601 nM | > 100000 nM | 974 nM | 81300 nM | 803 nM | 22000 nM | 1980 nM | 14500 nM | 5950 nM | > 100000 nM | 4360 nM | > 100000 nM
6 | C=C(F)C(=O)N1CCN(c2nc(OC[C@@H]3CCCN3C)nc3c2CCN(c2cccc4cccc(Cl)c24)C3)C[C@@H]1CC#N | 673 nM | 2570 nM | 962 nM | 2580 nM | 578 nM | 1980 nM | < 10 nM | 1480 nM | 699 nM | 2420 nM | 752 nM | 2230 nM | 573 nM | 2710 nM | 1050 nM | 2380 nM | 1310 nM | 2830 nM | 1170 nM | 2670 nM
